# Laboratory results: publication PMC8443589, “Modelling human liver fibrosis in the context of non-alcoholic steatohepatitis using a microphysiological system” (Communications Biology, 2021)
# Tested on: liver MPS NASH model (PHH, KC and HSC co-cultures)
# Assay: Cue study: secreted cytokines and chemokines (Luminex) with varying NPC number and added cues (Fig 5a, 5b)
# Assay type: cell-based, human
# Settings: Fat media + cue
# Excerpt: There is only limited understanding of the pathogenic drivers of NASH and their interaction, principally due to a lack of translational models that are amenable to detailed molecular analysis[2],[34]. Here, a systems biology ‘cue-signal-analysis’ paradigm[35],[36] was utilised to produce large factorial datasets to enable the identification of molecular pathways of importance. […] To create varying set ups of the NASH microtissues we created hepatocyte microtissues in the MPS with high numbers of NPC (60,000 KC and HSC—equivalent to 10% of microtissue population) and low numbers of NPCs (6000 KC and HSC—equivalent to 1% of microtissue), representing physiological and non-physiological cell ratios respectively. Next, we took these different microtissues and cultured them in media with or without FFA. Finally, we supplemented the media with lipopolysaccharide (LPS), TGFβ, fructose or cholesterol either as single ‘cues’, in pairs or all together (Fig. 4a). ‘Cues’ were selected for clinical association with NASH. LPS, is a pleiotropic inflammatory molecule, it is proposed to reach the liver via the hepatic portal vein after release from the gastrointestinal tract, contributing to disease progression[37],[38]. TGFβ has been extensively studied in relation to fibrosis due to its regulation of genes controlling collagen and matrix-modifying enzymes. Fructose is a key substrate for de-novo lipogenesis, a process that has been identified as a key event in lipid accumulation within NAFLD patients. Finally, cholesterol accumulation has also been linked to NASH disease aetiology.
# Assessment of gene expression changes was supplemented by assessment of the secretome produced by NASH microtissues in the MPS after exposure to the various cues. Increased pro-inflammatory cytokine secretion is a defining characteristic in NASH patients, so we conducted a Luminex cytokine array covering 42 different biomarkers, cytokines and chemokines secreted into the culture media of the different microtissues at multiple time points. […]
substance,measurement,setting,value
TGF-β,EGF relative expression (z-transformation),Day 6,-0.6947
same,Eotaxin relative expression (z-transformation),Day 6,-0.9288
same,FGF-2 relative expression (z-transformation),Day 6,0.0308
same,Fit-3L relative expression (z-transformation),Day 6,-0.07468
same,Fractalkine relative expression (z-transformation),Day 6,-0.6368
same,G-CSF relative expression (z-transformation),Day 6,0.1243
same,GRO relative expression (z-transformation),Day 6,-0.2928
same,IFN-a2 relative expression (z-transformation),Day 6,0.07826
same,IL-1RA relative expression (z-transformation),Day 6,-0.2716
same,IL-4 relative expression (z-transformation),Day 6,-0.7382
same,IL-6 relative expression (z-transformation),Day 6,0.4237
same,IL-7 relative expression (z-transformation),Day 6,-0.09812
same,IL-8 relative expression (z-transformation),Day 6,0.2731
same,IL-15 relative expression (z-transformation),Day 6,0.3864
same,IP-10 relative expression (z-transformation),Day 6,-0.5991
same,MCP-1 relative expression (z-transformation),Day 6,-0.1254
same,MCP-3 relative expression (z-transformation),Day 6,-0.3354
same,MDC relative expression (z-transformation),Day 6,1.089
same,MIP-1a relative expression (z-transformation),Day 6,-0.3189
same,MIP-1b relative expression (z-transformation),Day 6,-0.5904
same,TNFa relative expression (z-transformation),Day 6,-0.3323
same,VEGF relative expression (z-transformation),Day 6,0.1644
same,EGF relative expression (z-transformation),Day 11,0.4971
same,Eotaxin relative expression (z-transformation),Day 11,-0.7902
same,FGF-2 relative expression (z-transformation),Day 11,1.282
same,Fit-3L relative expression (z-transformation),Day 11,-1.046
same,Fractalkine relative expression (z-transformation),Day 11,0.2445
same,G-CSF relative expression (z-transformation),Day 11,1.379
same,GM-CSF relative expression (z-transformation),Day 11,-0.7569
same,GRO relative expression (z-transformation),Day 11,-0.05931
same,IFN-a2 relative expression (z-transformation),Day 11,-0.7423
same,IL-1RA relative expression (z-transformation),Day 11,1.044
same,IL-4 relative expression (z-transformation),Day 11,2.047
same,IL-6 relative expression (z-transformation),Day 11,-0.4878
same,IL-7 relative expression (z-transformation),Day 11,0.613
same,IL-8 relative expression (z-transformation),Day 11,1.674
same,IL-15 relative expression (z-transformation),Day 11,1.1283
same,IP-10 relative expression (z-transformation),Day 11,-0.5014
same,MCP-1 relative expression (z-transformation),Day 11,-0.1617
same,MCP-3 relative expression (z-transformation),Day 11,1.036
same,MDC relative expression (z-transformation),Day 11,-0.8939
same,MIP-1a relative expression (z-transformation),Day 11,-0.2467
same,MIP-1b relative expression (z-transformation),Day 11,-0.2666
same,TNFa relative expression (z-transformation),Day 11,-0.5851
same,VEGF relative expression (z-transformation),Day 11,0.04572
same,EGF relative expression (z-transformation),Day 14,-0.7709
same,Eotaxin relative expression (z-transformation),Day 14,-0.8142
same,FGF-2 relative expression (z-transformation),Day 14,-0.6405
same,Fit-3L relative expression (z-transformation),Day 14,-1.202
same,Fractalkine relative expression (z-transformation),Day 14,-0.4453
same,G-CSF relative expression (z-transformation),Day 14,2.694
same,GM-CSF relative expression (z-transformation),Day 14,-0.9022
same,GRO relative expression (z-transformation),Day 14,-0.07849
same,IFN-a2 relative expression (z-transformation),Day 14,0.3354
same,IL-1RA relative expression (z-transformation),Day 14,0.4791
same,IL-4 relative expression (z-transformation),Day 14,0.3542
same,IL-6 relative expression (z-transformation),Day 14,-0.7405
same,IL-7 relative expression (z-transformation),Day 14,-0.2291
same,IL-8 relative expression (z-transformation),Day 14,1.963
same,IL-15 relative expression (z-transformation),Day 14,1.049
same,IP-10 relative expression (z-transformation),Day 14,-0.2731
same,MCP-1 relative expression (z-transformation),Day 14,-0.3727
same,MCP-3 relative expression (z-transformation),Day 14,1.8775
same,MDC relative expression (z-transformation),Day 14,-0.4908
same,MIP-1a relative expression (z-transformation),Day 14,-0.1191
same,MIP-1b relative expression (z-transformation),Day 14,-0.282
same,TNFa relative expression (z-transformation),Day 14,-0.5429
same,VEGF relative expression (z-transformation),Day 14,-0.6644
